# Reference: patent publication US20110230493A1, “1-OXA-8-Azaspiro [4,5] Decabe-8-Carboxamide Compounds as FAAH Inhibitors” (Pfizer Inc., priority 2008, published 2011)
# What was measured:
# human FAAH = target: T1, human FAAH (Homo sapiens, UniProt O00519); assay: FAAH assay, human FAAH enzyme inactivation (kinact/Ki); assay type: biochemical; settings: pH 7.4, in vitro, oleamide 50 μM, 30° C., read-out: hFAAH kinact/Ki
# T1 construct: made in house; host or cells: E. coli
# T1 sequence (O00519 1-579): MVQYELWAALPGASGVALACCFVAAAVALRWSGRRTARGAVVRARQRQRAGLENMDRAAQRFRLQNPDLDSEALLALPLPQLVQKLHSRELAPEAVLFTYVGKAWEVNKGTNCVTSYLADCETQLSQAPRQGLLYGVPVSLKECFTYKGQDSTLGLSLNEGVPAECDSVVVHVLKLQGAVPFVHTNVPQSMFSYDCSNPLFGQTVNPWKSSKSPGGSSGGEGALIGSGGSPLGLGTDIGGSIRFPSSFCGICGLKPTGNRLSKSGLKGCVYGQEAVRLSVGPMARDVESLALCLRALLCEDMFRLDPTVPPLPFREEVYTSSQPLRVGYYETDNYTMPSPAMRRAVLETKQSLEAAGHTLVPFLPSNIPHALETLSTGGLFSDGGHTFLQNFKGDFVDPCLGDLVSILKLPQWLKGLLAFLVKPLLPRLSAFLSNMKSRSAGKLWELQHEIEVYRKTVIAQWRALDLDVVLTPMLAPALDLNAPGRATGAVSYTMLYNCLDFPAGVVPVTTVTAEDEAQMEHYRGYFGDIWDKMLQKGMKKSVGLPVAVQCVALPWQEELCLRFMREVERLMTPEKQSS
# Outline: (§1)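 Oleamide hydrolysis by 1-4 nM purified E. coli-expressed FAAH (substrate 50 μM = Km) coupled to GDH/NADH, pH 7.4 phosphate, 7.5% DMSO and EtOH, 30° C; A340 followed 90 min. kobs from mono-exponential fits; kinact/Ki from kobs-versus-concentration slope, multiplied by two.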
# rat FAAH = target: T2, rat FAAH (Rattus norvegicus, UniProt P97612); assay: FAAH assay, rat FAAH enzyme inactivation (kinact/Ki); assay type: biochemical; settings: pH 7.4, in vitro, oleamide 50 μM, 30° C., read-out: rFAAH kinact/Ki
# T2 construct: made in house; host or cells: E. coli
# T2 sequence (P97612 1-579): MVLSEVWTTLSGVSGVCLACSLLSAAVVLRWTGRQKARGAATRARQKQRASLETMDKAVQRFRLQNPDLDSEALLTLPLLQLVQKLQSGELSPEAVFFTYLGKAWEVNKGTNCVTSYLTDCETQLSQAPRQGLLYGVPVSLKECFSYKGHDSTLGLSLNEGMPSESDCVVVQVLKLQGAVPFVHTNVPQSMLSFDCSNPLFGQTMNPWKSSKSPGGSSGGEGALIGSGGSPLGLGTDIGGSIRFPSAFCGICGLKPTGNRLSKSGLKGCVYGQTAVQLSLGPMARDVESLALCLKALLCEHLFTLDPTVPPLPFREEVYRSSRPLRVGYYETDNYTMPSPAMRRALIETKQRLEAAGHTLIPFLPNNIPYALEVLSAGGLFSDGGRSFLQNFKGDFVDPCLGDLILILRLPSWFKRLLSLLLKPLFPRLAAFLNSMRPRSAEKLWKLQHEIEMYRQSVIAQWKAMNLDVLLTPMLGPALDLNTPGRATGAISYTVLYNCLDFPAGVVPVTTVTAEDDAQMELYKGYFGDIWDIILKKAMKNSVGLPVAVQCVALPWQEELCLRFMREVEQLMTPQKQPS
# Outline: as §1
# Male Sprague-Dawley Rats = assay: In vivo Complete Freund's Adjuvant (CFA) efficacy assay, inhibition of allodynia; parameters: species or system rat; key: (+) indicates the test compound was determined to be efficacious at 3 mpk, oral dosing; (−) indicates the test compound was determined to not be efficacious at 3 mpk, oral dosing; settings: 3 mpk, oral dosing; PWT four hours postdose; p < 0.05 vs vehicle group
# Description: For additional information on the CFA efficacy assay, see Jayamanne et al., Brit. J. Pharmacol. 2006, 147, 281-288. Experiments were performed on adult Male Sprague-Dawley Rats (200 g-250 g). Inflammation was induced in the left hindpaw of the rat by an intra-plantar injection of 150 uL Complete Freund's Adjuvant (CFA) (SIGMA F5881). The CFA injection immediately induces local inflammation, paw swelling, and pain that persists for at least two weeks post-injection. Baseline paw withdrawal threshold (PWT) was measured to determine the percent inhibition of allodynia using a set of Von Frey Hairs on day 4 post injection as illustrated by the Dixon Up and Down Method (W. J. Dixon, Ann. Rev. Pharmacol. Toxicol. 1980, 20:441-462). […] Following Dose administration PWT threshold was evaluated again at four hours postdose. The Sprague-Dawley rats used in this assay were purchased from Harlan, 8520 Allison Pointe Blvd., Indianapolis, Ind., 46250, U.S.A. Sprague-Dawley rats are an outbred breed of albino rats first produced by the Sprague Dawley farms in Madison, Wis., U.S.A.
# Percent Inhibition of Allodynia was determined by the formula: […]
# ΔPWT measurements were averaged for each treatment group and statistical comparisons between groups were made using ANOVA and Dunnett's two-tailed test. […]
kinact/KI (human FAAH) [M⁻¹ s⁻¹],kinact/KI (rat FAAH) [M⁻¹ s⁻¹],Structure (SMILES),CFA Efficacy (Male Sprague-Dawley Rats)
12500,15800,"Cc1noc(NC(=O)N2CCC3(CC2)C[C@H](c2ccc(OCc4ccc(F)cc4)cc2)CO3)c1C [Example 41, (3R)—N-(3,4-dimethylisoxazol-5-yl)-3-{4-[(4-fluorobenzyl)oxy]phenyl}-1-oxa-8-azaspiro[4.5]decane-8-carboxamide]",(+)
5590,5320,"Cc1noc(NC(=O)N2CCC3(CC2)C[C@@H](c2ccc(OCc4ccc(F)cc4)cc2)CO3)c1C [Example 42, (3S)—N-(3,4-dimethylisoxazol-5-yl)-3-{4-[(4-fluorobenzyl)oxy]phenyl}-1-oxa-8-azaspiro[4.5]decane-8-carboxamide]",(+)
9350,6260,"Cc1noc(NC(=O)N2CCC3(CC2)C[C@H](c2ccc(OCc4cccc(F)c4)cc2)CO3)c1C [Example 47, (3R)—N-(3,4-dimethylisoxazol-5-yl)-3-{4-[(3-fluorobenzyl)oxy]phenyl}-1-oxa-8-azaspiro[4.5]decane-8-carboxamide]",(+)
4470,2540,"Cc1noc(NC(=O)N2CCC3(CC2)C[C@@H](c2ccc(OCc4cccc(F)c4)cc2)CO3)c1C [Example 48, (3S)—N-(3,4-dimethylisoxazol-5-yl)-3-{4-[(3-fluorobenzyl)oxy]phenyl}-1-oxa-8-azaspiro[4.5]decane-8-carboxamide]",(+)
16800,21900,"Cc1noc(NC(=O)N2CCC3(CC2)C[C@H](c2ccc(OCc4ccc(Cl)cc4)cc2)CO3)c1C [Example 49, (3R)-3-{4-[(4-chlorobenzyl)oxy]phenyl}-N-(3,4-dimethylisoxazol-5-yl)-1-oxa-8-azaspiro[4.5]decane-8-carboxamide]",(−)
7470,9110,"Cc1noc(NC(=O)N2CCC3(CC2)C[C@@H](c2ccc(OCc4ccc(Cl)cc4)cc2)CO3)c1C [Example 50, (3S)-3-{4-[(4-chlorobenzyl)oxy]phenyl}-N-(3,4-dimethylisoxazol-5-yl)-1-oxa-8-azaspiro[4.5]decane-8-carboxamide]",(−)
16700,17300,"Cc1noc(NC(=O)N2CCC3(CC2)C[C@H](c2ccc(OCc4ccc(F)c(F)c4)cc2)CO3)c1C [Example 51, (3R)-3-{4-[(3,4-difluorobenzyl)oxy]phenyl}-N-(3,4-dimethylisoxazol-5-yl)-1-oxa-8-azaspiro[4.5]decane-8-carboxamide]",(+)
10100,6170,"Cc1noc(NC(=O)N2CCC3(CC2)C[C@@H](c2ccc(OCc4ccc(F)c(F)c4)cc2)CO3)c1C [Example 52, (3S)-3-{4-[(3,4-difluorobenzyl)oxy]phenyl}-N-(3,4-dimethylisoxazol-5-yl)-1-oxa-8-azaspiro[4.5]decane-8-carboxamide]",(+)
1610,2110,"Cc1noc(NC(=O)N2CCC3(CC2)C[C@@H](c2cccc(-c4ccc(F)c(F)c4)c2)CO3)c1C [Example 57, (3S)-3-(3′,4′-difluorobiphenyl-3-yl)-N-(3,4-dimethylisoxazol-5-yl)-1-oxa-8-azaspiro[4.5]decane-8-carboxamide]",(+)
3130,879,"Cc1noc(NC(=O)N2CCC3(CC2)C[C@H](c2cccc(-c4ccc(F)cc4)c2)CO3)c1C [Example 59, (3R)—N-(3,4-dimethylisoxazol-5-yl)-3-(4′-fluorobiphenyl-3-yl)-1-oxa-8-azaspiro[4.5]decane-8-carboxamide]",(+)
2110,2750,"Cc1noc(NC(=O)N2CCC3(CC2)C[C@@H](c2cccc(-c4ccc(F)cc4)c2)CO3)c1C [Example 60, (3S)—N-(3,4-dimethylisoxazol-5-yl)-3-(4′-fluorobiphenyl-3-yl)-1-oxa-8-azaspiro[4.5]decane-8-carboxamide]",(+)
1220,433,"Cc1noc(NC(=O)N2CCC3(CC2)C[C@H](c2cccc(-c4ccc(Cl)cc4)c2)CO3)c1C [Example 61, (3R)-3-(4′-chlorobiphenyl-3-yl)-N-(3,4-dimethylisoxazol-5-yl)-1-oxa-8-azaspiro[4.5]decane-8-carboxamide]",(+)
2920,2260,"Cc1noc(NC(=O)N2CCC3(CC2)C[C@@H](c2cccc(-c4ccc(Cl)cc4)c2)CO3)c1C [Example 62, (3S)-3-(4′-chlorobiphenyl-3-yl)-N-(3,4-dimethylisoxazol-5-yl)-1-oxa-8-azaspiro[4.5]decane-8-carboxamide]",(+)
2350,2160,"Cc1noc(NC(=O)N2CCC3(CC2)C[C@@H](c2cccc(-c4ccc(OC(F)(F)F)cc4)c2)CO3)c1C [Example 63, (3S)—N-(3,4-dimethylisoxazol-5-yl)-3-[4′-(trifluoromethoxy)biphenyl-3-yl]-1-oxa-8-azaspiro[4.5]decane-8-carboxamide]",(+)
4890,11200,"Cn1nnnc1NC(=O)N1CCC2(CC1)C[C@H](c1cccc(Oc3ccc(Cl)cn3)c1)CO2 [Example 81, 3-{3-[(5-chloropyridin-2-yl)oxy]phenyl}-N-(1-methyl-1H-tetrazol-5-yl)-1-oxa-8-azaspiro[4.5]decane-8-carboxamide]",(+)
15900,4110,"Cn1nnnc1NC(=O)N1CCC2(CC1)C[C@@H](c1ccc(OCc3cccc(F)c3)cc1)CO2 [Example 87, (3S)-3-{4-[(3-fluorobenzyl)oxy]phenyl}-N-(1-methyl-1H-tetrazol-5-yl)-1-oxa-8-azaspiro[4.5]decane-8-carboxamide]",(+)
32600,25000,"Cn1nnnc1NC(=O)N1CCC2(CC1)C[C@H](c1ccc(OCc3ccc(F)c(F)c3)cc1)CO2 [Example 88, (3R)-3-{4-[(3,4-difluorobenzyl)oxy]phenyl}-N-(1-methyl-1H-tetrazol-5-yl)-1-oxa-8-azaspiro[4.5]decane-8-carboxamide]",(+)
29800,9640,"Cn1nnnc1NC(=O)N1CCC2(CC1)C[C@@H](c1ccc(OCc3ccc(F)c(F)c3)cc1)CO2 [Example 89, (3S)-3-{4-[(3,4-difluorobenzyl)oxy]phenyl}-N-(1-methyl-1H-tetrazol-5-yl)-1-oxa-8-azaspiro[4.5]decane-8-carboxamide]",(+)
30800,22600,"Cn1nnnc1NC(=O)N1CCC2(CC1)C[C@H](c1ccc(OCc3ccc(F)cc3)cc1)CO2 [Example 90, (3R)-3-{4-[(4-fluorobenzyl)oxy]phenyl}-N-(1-methyl-1H-tetrazol-5-yl)-1-oxa-8-azaspiro[4.5]decane-8-carboxamide]",(+)
